One assay has as its system CEM-C7. Briefly: Cell proliferation / cytotoxicity assay. Particulars: cell viability, cell-titer blue, up to 48 hours. Type of assay: cell-based. The procedure:
HeLa, MCF-7, HCT-116, and CEM-C7 were obtained from the American Type Culture Collection (Manassas, Va., USA). All adherent cell lines were maintained in Dulbecco's modified Eagle's medium (Mediatech) with 100 U/ml penicillin (Invitrogen), 100 μg/ml streptomycin (Invitrogen), 0.25 μg/ml amphotericin B (Invitrogen), and 10% fetal bovine serum (USA Scientific) and incubated at 37° C. with 5% CO2. CEM cells were maintained in RPMI-1640 media supplemented with 100 U/ml penicillin, 100 μg/ml streptomycin, 0.25 μg/ml amphotericin B, and 10% fetal bovine serum and incubated at 37° C. with […].
Cells were plated at a density of 7,000-13,000/well in 200 μl of media overnight in a 96-well plate. Each (phosphine)gold(I)-indole was added to wells in a dose-dependent manner (0.01-100 μM). Cells were treated with compounds for variable time periods (8-48 hours). With adherent cell lines, medium was removed from the wells and then 100 μl of fresh medium was added into each well followed by the addition of 20 μl of cell titer-blue reagent (Promega). Cells were incubated with reagent for 1-4 hrs and the optical density of samples was read at 560 nm using a microplate reader. The background absorbance of dye with media was subtracted from each sample. Cell viability was then normalized against cells treated with DMSO. IC50 values were obtained using a fit of the data to Equation 1: Y=100%/[1+(IC50/Inhibitor)] (1)
where y is the fraction of viable cells, IC50 is the concentration of inhibitor that inhibits 50% cell growth, and Inhibitor is the concentration of compound tested.
The cellular effects of these (phosphine)gold(I) indoles were tested against several cancer cell lines including HeLa (cervical cancer), MCF-7 (breast cancer), HCT-116 (colon cancer), and CEM-C7 (leukemia). The dose-dependency of each modified indole on cell viability was assessed using a cell-titer blue assay as previously described. In these experiments, cells were exposed to variable concentrations of each (phosphine)gold(I) indole (0.01-100 μM) for up to 48 hours and then assessed for viability.
Defining this mechanism of cell death is important as necrosis can cause various side-effects including septic shock and kidney failure that can obviously compromise patient health.

The subject of assay [1] is HeLa cells. Nature of the assay: Fluorescence microscopy, propidium iodide uptake and annexin V staining. Format: cell-based. Particulars: 50 μM; for annexin V staining: 12 hours; for PI staining / uptake: 24 hours. The method, then:
Cells were plated at 75,000-125,000/ml for 24 hours. […] Alexa fluro 488 Annexin V and Propidium Iodide were added to each well and images were taken on Leica CTR 6500 microscope using green (480/40 nm) and red (560/40 nm) excitation band pass filters.

For assay [2], the system named is HeLa cells. Nature of the assay: Cell cycle analyses (PI staining, flow cytometry). Type of assay: cell-based. Particulars: for G1 (%) / G2/M (%) / S-Phase (%): 50 μM, 24 hours post-treatment. The procedure: Cells were plated at a density of 200,000/ml. Au(I)-Indole analogs were then added in a dose-dependent manner for time periods varying from 1 to 3 days. Cells were treated with 0.25% trypsin and harvested by centrifugation. The supernatant was removed and then washed with PBS. After aspiration of PBS, 500 μl of 70% ethanol was added and cells were incubated on ice for 15 minutes followed by centrifugation and the removal of ethanol. One ml of PI staining solution [(10 ml of 0.1 Triton X-100/PBS, 0.4 ml of 500 μg/ml of PI, and 2 mg/ml of DNase-free RNase)] was added to the cell suspension, placed on ice for 30 minutes, and then analyzed using a Beckman Coulter XL flow cytometer with a red filter.
We next analyzed the effects of compounds 3 and 4 on cell-cycle progression using PI staining to measure cellular DNA content. HeLa cells were treated with DMSO.
Background: Flow cytometry measures light scatter and fluorescence of single cells or particles in a stream.

A further assay addresses T1, AURKB (Homo sapiens, UniProt Q96GD4).
T1 construct: purchased Luceome Biotechnologies (Tucson, Ariz.)
Nature of the assay: Kinase inhibition screening (Luceome). Format: biochemical. Particulars: 10 μM. An excerpt: (§1) It is well established that dysfunctional and unregulated kinase activity plays significant roles in cancer initiation and progression. […] Inspection of the data provides several interesting observations. […] These inhibitory effects at this concentration are consistent with their measured IC50 values that are also in the μM range (Table 1). In addition, several kinases display overlapping inhibitory responses to both gold(I) compounds. Many of these are of particular interest since they are involved in cancer initiation and/or progression. For example, the Aurora kinase family members, Aurora A and Aurora B, as well as the MARK2 and MARK3 kinases function during mitosis to regulate cell division. These kinases are important therapeutic targets as their activities are often deregulated in many types of cancers. Other kinases such as RPS6KA3 and MLK3 are involved in the MAP kinase and JNK pathways which are also important in cancer progression.

The target of a further assay is T2, BLK (Homo sapiens, UniProt P51451).
T2 construct: purchased Luceome Biotechnologies (Tucson, Ariz.)
Nature of the assay: Kinase inhibition screening (Luceome). Type of assay: biochemical. Particulars: 10 μM.
Source text: as §1

The next assay addresses T3, CAMKD2B (Homo sapiens, UniProt Q13554).
T3 construct: purchased Luceome Biotechnologies (Tucson, Ariz.)
Briefly: Kinase inhibition screening (Luceome). Particulars: 10 μM. Type of assay: biochemical.
Source text: as §1

For a further assay, the target named is T4, CAMKK2 (Homo sapiens, UniProt Q96RR4).
T4 construct: purchased Luceome Biotechnologies (Tucson, Ariz.)
Nature of the assay: Kinase inhibition screening (Luceome). Type of assay: biochemical. Particulars: 10 μM.
Source text: as §1

The next assay deals with T5, CLK2 (Homo sapiens, UniProt P49760).
T5 construct: purchased Luceome Biotechnologies (Tucson, Ariz.)
Briefly: Kinase inhibition screening (Luceome). Particulars: 10 μM. Format: biochemical.
Source text: as §1

A further assay has as its target T6, DDR2 (Homo sapiens, UniProt Q16832).
T6 construct: purchased Luceome Biotechnologies (Tucson, Ariz.)
Briefly: Kinase inhibition screening (Luceome). Format: biochemical. Particulars: 10 μM.
Source text: as §1

A further assay concerns the target T7, FGFR2 (Homo sapiens, UniProt P21802).
T7 construct: purchased Luceome Biotechnologies (Tucson, Ariz.)
Nature of the assay: Kinase inhibition screening (Luceome). Type of assay: biochemical. Particulars: 10 μM.
Source text: as §1

The target in another assay is T8, MET (Homo sapiens, UniProt P08581).
T8 construct: purchased Luceome Biotechnologies (Tucson, Ariz.)
T8 sequence (P08581 25-1390): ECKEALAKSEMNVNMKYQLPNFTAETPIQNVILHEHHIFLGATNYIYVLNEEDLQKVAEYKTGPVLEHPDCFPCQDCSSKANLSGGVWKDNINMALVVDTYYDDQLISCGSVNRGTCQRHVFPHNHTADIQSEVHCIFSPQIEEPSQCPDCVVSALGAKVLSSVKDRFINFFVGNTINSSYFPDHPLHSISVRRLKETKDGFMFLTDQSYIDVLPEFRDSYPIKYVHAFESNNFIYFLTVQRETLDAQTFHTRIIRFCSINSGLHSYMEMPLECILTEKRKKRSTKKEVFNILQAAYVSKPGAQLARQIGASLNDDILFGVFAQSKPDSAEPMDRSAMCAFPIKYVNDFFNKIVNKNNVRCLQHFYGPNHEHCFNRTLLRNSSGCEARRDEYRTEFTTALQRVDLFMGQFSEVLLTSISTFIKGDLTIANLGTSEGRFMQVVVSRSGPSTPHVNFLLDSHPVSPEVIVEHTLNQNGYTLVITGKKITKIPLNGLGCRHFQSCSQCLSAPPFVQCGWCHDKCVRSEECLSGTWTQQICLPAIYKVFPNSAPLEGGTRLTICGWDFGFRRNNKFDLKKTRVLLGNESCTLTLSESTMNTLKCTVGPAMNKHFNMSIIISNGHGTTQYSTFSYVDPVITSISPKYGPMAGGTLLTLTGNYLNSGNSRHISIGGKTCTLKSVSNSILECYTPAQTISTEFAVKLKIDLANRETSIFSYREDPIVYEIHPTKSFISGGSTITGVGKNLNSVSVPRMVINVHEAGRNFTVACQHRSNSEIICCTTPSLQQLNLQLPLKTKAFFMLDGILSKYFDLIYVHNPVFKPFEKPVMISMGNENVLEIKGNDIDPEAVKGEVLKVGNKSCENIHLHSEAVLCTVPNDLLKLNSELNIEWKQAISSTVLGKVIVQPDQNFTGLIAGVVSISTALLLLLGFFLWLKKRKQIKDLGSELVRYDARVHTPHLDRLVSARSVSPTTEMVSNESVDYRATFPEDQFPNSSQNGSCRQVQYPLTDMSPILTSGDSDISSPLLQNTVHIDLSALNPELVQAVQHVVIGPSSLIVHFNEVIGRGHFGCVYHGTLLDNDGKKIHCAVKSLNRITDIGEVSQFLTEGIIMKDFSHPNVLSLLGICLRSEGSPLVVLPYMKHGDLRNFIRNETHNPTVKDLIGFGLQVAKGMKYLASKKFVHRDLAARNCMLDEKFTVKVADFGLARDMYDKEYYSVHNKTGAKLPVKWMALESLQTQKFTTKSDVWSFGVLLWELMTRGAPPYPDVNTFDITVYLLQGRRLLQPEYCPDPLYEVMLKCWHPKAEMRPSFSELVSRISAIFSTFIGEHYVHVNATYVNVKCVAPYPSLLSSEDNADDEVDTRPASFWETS
Briefly: Kinase inhibition screening (Luceome). Type of assay: biochemical. Particulars: 10 μM.
Source text: as §1

Another assay concerns the target T9, PDK1 (Homo sapiens, UniProt O15530).
T9 construct: purchased Luceome Biotechnologies (Tucson, Ariz.)
Nature of the assay: Kinase inhibition screening (Luceome). Particulars: 10 μM. Format: biochemical.
Source text: as §1

Another assay has as its target T10, PIM1 (Homo sapiens, UniProt P11309).
T10 construct: purchased Luceome Biotechnologies (Tucson, Ariz.)
Nature of the assay: Kinase inhibition screening (Luceome). Type of assay: biochemical. Particulars: 10 μM.
Source text: as §1

The next assay concerns the target T11, PKC-δ (Homo sapiens, UniProt Q05655).
T11 construct: purchased Luceome Biotechnologies (Tucson, Ariz.)
Briefly: Kinase inhibition screening (Luceome). Type of assay: biochemical. Particulars: 10 μM.
Source text: as §1

For a further assay, the target named is T12, PKC-η (Homo sapiens, UniProt P24723).
T12 construct: purchased Luceome Biotechnologies (Tucson, Ariz.)
T12 sequence (P24723 whole entry): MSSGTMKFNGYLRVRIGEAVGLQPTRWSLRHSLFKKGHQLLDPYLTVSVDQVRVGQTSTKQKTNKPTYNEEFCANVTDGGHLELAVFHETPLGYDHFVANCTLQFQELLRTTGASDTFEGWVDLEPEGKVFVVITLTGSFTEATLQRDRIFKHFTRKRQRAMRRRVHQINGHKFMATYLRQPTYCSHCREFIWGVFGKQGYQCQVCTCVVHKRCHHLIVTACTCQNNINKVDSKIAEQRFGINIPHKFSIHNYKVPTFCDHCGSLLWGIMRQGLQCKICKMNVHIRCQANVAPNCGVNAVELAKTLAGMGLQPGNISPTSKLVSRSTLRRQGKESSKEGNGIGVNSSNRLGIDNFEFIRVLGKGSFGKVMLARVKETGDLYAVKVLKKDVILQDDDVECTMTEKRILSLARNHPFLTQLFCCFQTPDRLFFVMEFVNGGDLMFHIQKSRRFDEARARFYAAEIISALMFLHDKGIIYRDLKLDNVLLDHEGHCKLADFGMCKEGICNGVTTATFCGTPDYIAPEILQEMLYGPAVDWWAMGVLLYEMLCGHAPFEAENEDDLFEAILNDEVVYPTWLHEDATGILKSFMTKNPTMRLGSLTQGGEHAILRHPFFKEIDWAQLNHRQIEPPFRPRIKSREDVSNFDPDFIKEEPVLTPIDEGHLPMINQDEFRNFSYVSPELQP
Briefly: Kinase inhibition screening (Luceome). Particulars: 10 μM. Type of assay: biochemical.
Source text: as §1

For another assay, the target named is T13, PKD2 (Homo sapiens, UniProt Q9BZL6).
T13 construct: purchased Luceome Biotechnologies (Tucson, Ariz.)
T13 sequence (Q9BZL6 whole entry): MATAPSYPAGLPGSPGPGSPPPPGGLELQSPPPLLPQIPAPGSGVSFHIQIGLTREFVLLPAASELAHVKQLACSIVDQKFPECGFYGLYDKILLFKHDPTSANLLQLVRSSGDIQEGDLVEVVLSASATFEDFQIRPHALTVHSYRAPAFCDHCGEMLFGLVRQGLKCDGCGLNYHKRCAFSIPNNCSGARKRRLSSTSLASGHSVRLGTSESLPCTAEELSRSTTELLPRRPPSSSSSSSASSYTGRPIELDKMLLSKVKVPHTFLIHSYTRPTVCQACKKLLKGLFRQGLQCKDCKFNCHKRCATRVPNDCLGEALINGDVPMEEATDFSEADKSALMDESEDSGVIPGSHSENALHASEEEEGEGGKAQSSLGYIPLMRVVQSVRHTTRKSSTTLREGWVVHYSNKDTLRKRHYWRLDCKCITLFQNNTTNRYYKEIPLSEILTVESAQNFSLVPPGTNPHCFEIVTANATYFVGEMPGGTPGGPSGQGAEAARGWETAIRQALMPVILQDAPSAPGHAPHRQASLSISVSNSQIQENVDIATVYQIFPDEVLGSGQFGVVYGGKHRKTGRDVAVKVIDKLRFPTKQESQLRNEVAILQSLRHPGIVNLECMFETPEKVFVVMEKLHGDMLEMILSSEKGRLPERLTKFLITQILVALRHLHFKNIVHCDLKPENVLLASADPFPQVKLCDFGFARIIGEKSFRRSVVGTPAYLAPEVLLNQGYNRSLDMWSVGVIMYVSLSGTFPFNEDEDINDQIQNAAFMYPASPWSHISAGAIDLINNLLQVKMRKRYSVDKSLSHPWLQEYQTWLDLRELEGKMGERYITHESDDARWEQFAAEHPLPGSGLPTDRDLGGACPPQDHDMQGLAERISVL
Nature of the assay: Kinase inhibition screening (Luceome). Particulars: 10 μM. Format: biochemical.
Source text: as §1

The next assay addresses T14, PKG1 (Homo sapiens, UniProt Q13976).
T14 construct: purchased Luceome Biotechnologies (Tucson, Ariz.)
Briefly: Kinase inhibition screening (Luceome). Type of assay: biochemical. Particulars: 10 μM.
Source text: as §1

In another assay the target is T15, SNARK (Homo sapiens, UniProt Q9H093).
T15 construct: purchased Luceome Biotechnologies (Tucson, Ariz.)
Briefly: Kinase inhibition screening (Luceome). Type of assay: biochemical. Particulars: 10 μM.
Source text: as §1

The next assay concerns the target T16, YSK1 (Homo sapiens, UniProt O00506).
T16 construct: purchased Luceome Biotechnologies (Tucson, Ariz.)
Briefly: Kinase inhibition screening (Luceome). Format: biochemical. Particulars: 10 μM.
Source text: as §1

The results in this text go back to patent US9821173B2, “Anti-cancer agents and methods of use” (Case Western Reserve University, priority 2013, dated 2017).

A word on the IC50: it is the concentration that inhibits the measured activity by half.

“And” between values parts separate entries of the source, which are not always exact repeats. Identical values can stand only once.

T9 sequence (O15530 whole entry): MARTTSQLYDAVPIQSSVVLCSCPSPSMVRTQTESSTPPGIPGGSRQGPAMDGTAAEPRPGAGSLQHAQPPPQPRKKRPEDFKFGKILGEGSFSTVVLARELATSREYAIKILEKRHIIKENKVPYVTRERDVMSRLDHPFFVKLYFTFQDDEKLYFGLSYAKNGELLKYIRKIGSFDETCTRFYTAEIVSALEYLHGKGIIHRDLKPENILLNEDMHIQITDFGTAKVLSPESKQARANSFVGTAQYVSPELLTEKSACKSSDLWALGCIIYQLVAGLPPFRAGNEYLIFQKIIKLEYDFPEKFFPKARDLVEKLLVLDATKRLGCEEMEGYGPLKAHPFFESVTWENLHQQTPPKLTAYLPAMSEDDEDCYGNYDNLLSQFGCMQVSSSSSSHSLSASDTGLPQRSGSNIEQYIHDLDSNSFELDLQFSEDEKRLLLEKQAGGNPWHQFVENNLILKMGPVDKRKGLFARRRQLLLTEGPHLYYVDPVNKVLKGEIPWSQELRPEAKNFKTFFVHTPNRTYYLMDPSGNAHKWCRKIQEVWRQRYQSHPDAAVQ
T11 sequence (Q05655 whole entry): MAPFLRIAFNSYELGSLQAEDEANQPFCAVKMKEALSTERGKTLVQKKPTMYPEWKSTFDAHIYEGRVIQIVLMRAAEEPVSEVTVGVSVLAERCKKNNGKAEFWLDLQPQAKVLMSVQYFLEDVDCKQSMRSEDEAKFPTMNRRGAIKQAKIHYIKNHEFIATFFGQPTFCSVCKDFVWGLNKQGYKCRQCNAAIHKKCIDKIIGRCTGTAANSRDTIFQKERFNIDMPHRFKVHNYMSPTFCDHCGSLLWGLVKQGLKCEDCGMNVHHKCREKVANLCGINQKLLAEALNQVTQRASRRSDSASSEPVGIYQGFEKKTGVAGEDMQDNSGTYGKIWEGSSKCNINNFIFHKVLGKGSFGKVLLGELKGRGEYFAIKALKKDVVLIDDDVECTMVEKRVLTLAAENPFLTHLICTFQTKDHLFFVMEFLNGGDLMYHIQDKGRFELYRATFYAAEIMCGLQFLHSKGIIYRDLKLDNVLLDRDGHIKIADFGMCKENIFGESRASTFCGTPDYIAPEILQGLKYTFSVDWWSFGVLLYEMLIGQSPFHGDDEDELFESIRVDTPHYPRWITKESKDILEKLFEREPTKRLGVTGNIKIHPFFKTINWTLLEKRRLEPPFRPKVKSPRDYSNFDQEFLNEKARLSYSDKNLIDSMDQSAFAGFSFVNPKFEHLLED
T1 sequence (Q96GD4 whole entry): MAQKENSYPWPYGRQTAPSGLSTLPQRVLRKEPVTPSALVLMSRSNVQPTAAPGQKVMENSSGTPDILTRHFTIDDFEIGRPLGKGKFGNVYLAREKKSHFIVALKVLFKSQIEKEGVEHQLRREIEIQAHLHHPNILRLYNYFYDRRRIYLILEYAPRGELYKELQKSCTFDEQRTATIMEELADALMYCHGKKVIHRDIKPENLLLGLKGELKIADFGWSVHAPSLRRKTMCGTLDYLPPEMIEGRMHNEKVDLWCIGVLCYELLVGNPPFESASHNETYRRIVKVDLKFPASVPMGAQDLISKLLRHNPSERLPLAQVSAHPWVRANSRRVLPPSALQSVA
T16 sequence (O00506 whole entry): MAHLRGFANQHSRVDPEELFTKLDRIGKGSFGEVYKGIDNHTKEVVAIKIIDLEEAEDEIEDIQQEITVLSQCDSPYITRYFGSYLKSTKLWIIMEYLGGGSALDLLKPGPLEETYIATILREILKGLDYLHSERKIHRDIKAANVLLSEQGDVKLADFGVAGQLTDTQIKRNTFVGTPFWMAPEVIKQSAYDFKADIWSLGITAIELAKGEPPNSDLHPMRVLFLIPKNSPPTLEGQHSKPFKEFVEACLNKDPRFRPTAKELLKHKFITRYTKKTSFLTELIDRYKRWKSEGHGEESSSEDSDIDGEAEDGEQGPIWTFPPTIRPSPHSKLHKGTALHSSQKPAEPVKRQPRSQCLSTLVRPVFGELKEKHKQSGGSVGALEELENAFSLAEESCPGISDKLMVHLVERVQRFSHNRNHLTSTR

Compound `CC(C)(C)OC(=O)n1ccc2c[c]([Au-][P+](c3ccccc3)(c3ccccc3)c3ccccc3)ccc21` [Compound 3, 5-{Triphenylphosphine aurate(I)}-tert-butyl1H-indole-1-carboxylate] returned a concentration for half-maximal inhibition (IC50) with CEM-C7 of 19.9 µM. Further, in the assay on HeLa cells [1], the “annexin V staining” value is given as “induce early stage apoptosis” and the “PI staining / uptake” value is “significant PI uptake is not observed”. Also, in the assay with HeLa cells [2], the “G1 (%)” value is 45.4 +/− 2.1%, the “G2/M (%)” value is 13.0 +/− 2.1% and the “S-Phase (%)” value is given as 41.6 +/− 0.1%. Further, in the assay with HeLa cells [2] (over a 24 hour period), the “alterations in cell-cycle progression” value is recorded as “does not cause any significant alterations in cell-cycle progression”. At AURKB, the “% Inhibition AURKB” value is 11.1%. The “% Inhibition BLK” value on BLK stood at 0%. At CAMKD2B, the “% Inhibition CAMKD2B” value was found to be 0%. On CAMKK2, the “% Inhibition CAMKK2” value was determined as 0%. The “% Inhibition CLK2” value on CLK2 is on record as 0%. Besides, on DDR2, the “% Inhibition DDR2” value worked out at 0%. Also, on FGFR2, the “% Inhibition FGFR2” value is 5.1%. In addition, at MET, the “% Inhibition MET” value is given as 15.1%. In addition, on PDK1, the “% Inhibition PDK1” value was 17.4%. Besides, the “% Inhibition PIM1” value on PIM1 was 0%. Also, the “% Inhibition PKC-δ” value on PKC-δ is 0%. Besides, at PKC-η, the “% Inhibition PKC-η” value stood at 3.2%. Also, the “% Inhibition PKD2” value on PKD2 is 0%. Moreover, the “% Inhibition PKG1” value on PKG1 was found to be 5.4%. The “% Inhibition SNARK” value on SNARK is 0%. In addition, the “% Inhibition YSK1” value at YSK1 is 0%.
As to `CC(C)(C)OC(=O)n1ccc2c[c]([Au-][P+](C3CCCCC3)(C3CCCCC3)C3CCCCC3)ccc21` [Compound 4, 5-{Tricyclohexylphosphine aurate(I)}-tert-butyl1H-indole-1-carboxylate], in the assay with CEM-C7, the midpoint of inhibition, the IC50, lay at 9.7 µM. For the same compound, in the assay on HeLa cells [1], the “annexin V staining” value was “induce early stage apoptosis” and the “PI staining / uptake” value is recorded as “more intense PI staining”. For the same compound, in the assay with HeLa cells [2], the “G1 (%)” value was 60.3+/−3.2% and 60.3 +/− 0.8%; the “G2/M (%)” value is 11.4 +/− 4.9%; the “S-Phase (%)” value is reported as 28.3 +/− 1.3%. For the same compound, the “% Inhibition AURKB” value on AURKB amounted to 24.5%. Further, the “% Inhibition BLK” value at BLK was found to be 0%. For the same compound, the “% Inhibition CAMKD2B” value at CAMKD2B is listed as 0%. For the same compound, the “% Inhibition CAMKK2” value on CAMKK2 is 7.9%. Besides, the “% Inhibition CLK2” value on CLK2 amounted to 0%. On DDR2, the “% Inhibition DDR2” value turned out to be 0%. Further, at FGFR2, the “% Inhibition FGFR2” value is 0%. In addition, the “% Inhibition MET” value at MET amounted to 23.3%. Besides, the “% Inhibition PDK1” value at PDK1 is 24.3%. Moreover, the “% Inhibition PIM1” value at PIM1 is recorded as 10.6%. Besides, the “% Inhibition PKC-δ” value at PKC-δ came out at 3.8%. On PKC-η, the “% Inhibition PKC-η” value is reported as 0%. For the same compound, the “% Inhibition PKD2” value on PKD2 came to 3.8%. Moreover, the “% Inhibition PKG1” value on PKG1 was 3.2%. The “% Inhibition SNARK” value at SNARK turned out to be 39.5%. Besides, at YSK1, the “% Inhibition YSK1” value is listed as 20.9%.
